The NIST ThermoML archive (doi:10.1016/j.fluid.2016.02.009)

Conditions: Liquid, Vibrating tube method

CC(C)OC(C)C [diisopropyl ether]
Conditions | mass density [kg/m3]
283.15 K, 100 kPa | 733.83
283.15 K, 5000 kPa | 739.6
283.15 K, 10000 kPa | 744.9
283.15 K, 15000 kPa | 749.85
283.15 K, 20000 kPa | 754.49
283.15 K, 25000 kPa | 758.89
283.15 K, 30000 kPa | 763.08
283.15 K, 35000 kPa | 767.08
283.15 K, 40000 kPa | 770.91
283.15 K, 45000 kPa | 774.59
283.15 K, 50000 kPa | 778.13
283.15 K, 55000 kPa | 781.56
283.15 K, 60000 kPa | 784.88
283.15 K, 65000 kPa | 788.07
288.15 K, 100 kPa | 728.69
288.15 K, 5000 kPa | 734.61
288.15 K, 10000 kPa | 740.14
288.15 K, 15000 kPa | 745.3
288.15 K, 20000 kPa | 750.09
288.15 K, 25000 kPa | 754.61
288.15 K, 30000 kPa | 758.9
288.15 K, 35000 kPa | 763.01
288.15 K, 40000 kPa | 766.92
288.15 K, 45000 kPa | 770.68
288.15 K, 50000 kPa | 774.31
288.15 K, 55000 kPa | 777.77
288.15 K, 60000 kPa | 781.16
288.15 K, 65000 kPa | 784.42
293.15 K, 100 kPa | 723.51
293.15 K, 5000 kPa | 729.62
293.15 K, 10000 kPa | 735.37
293.15 K, 15000 kPa | 740.69
293.15 K, 20000 kPa | 745.62
293.15 K, 25000 kPa | 750.29
293.15 K, 30000 kPa | 754.71
293.15 K, 35000 kPa | 758.91
293.15 K, 40000 kPa | 762.93
293.15 K, 45000 kPa | 766.78
293.15 K, 50000 kPa | 770.48
293.15 K, 55000 kPa | 774.06
293.15 K, 60000 kPa | 777.49
293.15 K, 65000 kPa | 780.83
298.15 K, 100 kPa | 718.29
298.15 K, 5000 kPa | 724.67
298.15 K, 10000 kPa | 730.59
298.15 K, 15000 kPa | 736.05
298.15 K, 20000 kPa | 741.13
298.15 K, 25000 kPa | 745.92
298.15 K, 30000 kPa | 750.46
298.15 K, 35000 kPa | 754.77
298.15 K, 40000 kPa | 758.89
298.15 K, 45000 kPa | 762.82
298.15 K, 50000 kPa | 766.6
298.15 K, 55000 kPa | 770.25
298.15 K, 60000 kPa | 773.75
298.15 K, 65000 kPa | 777.14
303.15 K, 100 kPa | 713.03
303.15 K, 5000 kPa | 719.61
303.15 K, 10000 kPa | 725.79
303.15 K, 15000 kPa | 731.48
303.15 K, 20000 kPa | 736.81
303.15 K, 25000 kPa | 741.76
303.15 K, 30000 kPa | 746.43
303.15 K, 35000 kPa | 750.85
303.15 K, 40000 kPa | 755.09
303.15 K, 45000 kPa | 759.12
303.15 K, 50000 kPa | 763
303.15 K, 55000 kPa | 766.7
303.15 K, 60000 kPa | 770.24
303.15 K, 65000 kPa | 773.7
308.15 K, 100 kPa | 707.73
308.15 K, 5000 kPa | 714.61
308.15 K, 10000 kPa | 720.99
308.15 K, 15000 kPa | 726.79
308.15 K, 20000 kPa | 732.2
308.15 K, 25000 kPa | 737.29
308.15 K, 30000 kPa | 742.07
308.15 K, 35000 kPa | 746.63
308.15 K, 40000 kPa | 750.94
308.15 K, 45000 kPa | 755.05
308.15 K, 50000 kPa | 759.01
308.15 K, 55000 kPa | 762.79
308.15 K, 60000 kPa | 766.45
308.15 K, 65000 kPa | 769.97
313.15 K, 100 kPa | 702.38
313.15 K, 5000 kPa | 709.64
313.15 K, 10000 kPa | 716.16
313.15 K, 15000 kPa | 722.17
313.15 K, 20000 kPa | 727.77
313.15 K, 25000 kPa | 732.97
313.15 K, 30000 kPa | 737.92
313.15 K, 35000 kPa | 742.55
313.15 K, 40000 kPa | 746.98
313.15 K, 45000 kPa | 751.2
313.15 K, 50000 kPa | 755.21
313.15 K, 55000 kPa | 759.09
313.15 K, 60000 kPa | 762.83
313.15 K, 65000 kPa | 766.39
318.15 K, 100 kPa | 697.07
318.15 K, 5000 kPa | 704.53
318.15 K, 10000 kPa | 711.3
318.15 K, 15000 kPa | 717.51
318.15 K, 20000 kPa | 723.27
318.15 K, 25000 kPa | 728.67
318.15 K, 30000 kPa | 733.74
318.15 K, 35000 kPa | 738.49
318.15 K, 40000 kPa | 743.01
318.15 K, 45000 kPa | 747.34
318.15 K, 50000 kPa | 751.47
318.15 K, 55000 kPa | 755.41
318.15 K, 60000 kPa | 759.21
318.15 K, 65000 kPa | 762.85
323.15 K, 100 kPa | 691.61
323.15 K, 5000 kPa | 699.42
323.15 K, 10000 kPa | 706.46
323.15 K, 15000 kPa | 712.89
323.15 K, 20000 kPa | 718.83
323.15 K, 25000 kPa | 724.38
323.15 K, 30000 kPa | 729.58
323.15 K, 35000 kPa | 734.45
323.15 K, 40000 kPa | 739.08
323.15 K, 45000 kPa | 743.5
323.15 K, 50000 kPa | 747.72
323.15 K, 55000 kPa | 751.72
323.15 K, 60000 kPa | 755.59
323.15 K, 65000 kPa | 759.26
328.15 K, 100 kPa | 686.17
328.15 K, 5000 kPa | 694.18
328.15 K, 10000 kPa | 701.52
328.15 K, 15000 kPa | 708.19
328.15 K, 20000 kPa | 714.34
328.15 K, 25000 kPa | 720.04
328.15 K, 30000 kPa | 725.37
328.15 K, 35000 kPa | 730.4
328.15 K, 40000 kPa | 735.15
328.15 K, 45000 kPa | 739.67
328.15 K, 50000 kPa | 743.94
328.15 K, 55000 kPa | 748.05
328.15 K, 60000 kPa | 751.94
328.15 K, 65000 kPa | 755.64
333.15 K, 100 kPa | 681
333.15 K, 5000 kPa | 688.97
333.15 K, 10000 kPa | 696.58
333.15 K, 15000 kPa | 703.52
333.15 K, 20000 kPa | 709.85
333.15 K, 25000 kPa | 715.73
333.15 K, 30000 kPa | 721.21
333.15 K, 35000 kPa | 726.36
333.15 K, 40000 kPa | 731.23
333.15 K, 45000 kPa | 735.85
333.15 K, 50000 kPa | 740.18
333.15 K, 55000 kPa | 744.38
333.15 K, 60000 kPa | 748.24
333.15 K, 65000 kPa | 752.02
